Experimental data taken from US20220177477A1 (Central China Normal University, priority 2019, published 2022).

How the values were obtained:
TRKA = target: T1, TRKA (Homo sapiens, UniProt P04629); assay: In vitro biochemical HTRF KinEASE kinase inhibition, TRKA; details: wild-type kinase, final ATP 3.727 μmol/L; read-out: TRKA IC50
T1 construct: purchased Carna Biosciences 08-186

TRKB = target: T2, TRKB (Homo sapiens, UniProt Q16620); assay: In vitro biochemical HTRF KinEASE kinase inhibition, TRKB; details: wild-type kinase, final ATP 2.56 μmol/L
T2 construct: purchased Carna Biosciences 08-187
T2 sequence (Q16620 32-822): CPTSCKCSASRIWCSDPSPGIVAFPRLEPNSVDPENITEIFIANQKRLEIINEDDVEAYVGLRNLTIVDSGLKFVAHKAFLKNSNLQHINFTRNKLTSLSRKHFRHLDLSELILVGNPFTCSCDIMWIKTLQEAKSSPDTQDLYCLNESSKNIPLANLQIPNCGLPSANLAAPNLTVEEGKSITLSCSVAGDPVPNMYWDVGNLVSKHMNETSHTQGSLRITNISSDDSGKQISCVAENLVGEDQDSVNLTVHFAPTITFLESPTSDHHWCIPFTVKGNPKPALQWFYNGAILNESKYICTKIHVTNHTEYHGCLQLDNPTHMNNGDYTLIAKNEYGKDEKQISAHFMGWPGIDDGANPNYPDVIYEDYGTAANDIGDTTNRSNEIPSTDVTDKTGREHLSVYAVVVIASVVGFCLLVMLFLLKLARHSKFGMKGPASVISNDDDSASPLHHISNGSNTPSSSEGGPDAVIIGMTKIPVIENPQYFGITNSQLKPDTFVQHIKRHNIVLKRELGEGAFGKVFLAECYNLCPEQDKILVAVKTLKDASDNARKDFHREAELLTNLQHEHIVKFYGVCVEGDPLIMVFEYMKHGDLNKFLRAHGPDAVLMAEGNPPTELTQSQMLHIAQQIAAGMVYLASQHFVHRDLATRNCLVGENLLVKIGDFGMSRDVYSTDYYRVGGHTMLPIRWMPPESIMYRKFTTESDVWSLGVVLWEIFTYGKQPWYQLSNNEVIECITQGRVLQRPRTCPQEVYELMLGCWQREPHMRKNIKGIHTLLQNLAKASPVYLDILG
Protocol: The material and the method are as follows: wild-type kinases such as TRKA, TRKB and TRKC, and mutant kinases such as TRKA-G595R, TRKA-G667C, TRKA-F589L, TRKC-G623R and TRKC-G696A, and are derived from Carna Biosciences 08-186, 08-187, 08-197; HTRF KinEASE TKkit (Cisbio 62TKO PEC); 384 well plates (Greiner corporation); ATP (Life technologies PV 3227), MgCl2 (sigma); PHERAstar FS Multifunctional microplate reader (BMG Co.); low speed centrifuge (StaiteXiangyi corporation); incubator (Binder company).
Preparing a compound working solution: the dispensed compounds were removed from the freezer prior to testing and diluted to 100× concentration with pure DMSO; then the compound was diluted to the desired concentration of 4× with deionized water;
Preparation of 1.33× enzyme buffer (enzyme buffer): 5× enzyme buffer (from HTRF kit) was diluted to 1.33× with deionized water and the corresponding ingredients were added at a final concentration of 1.33×: 1.33 mmol/L Dithiothreitol (DTT), 1.33 mmol/L MnCl2, 6.65 mmol/L MgCl2 and 39.9 nmol/L SEB;
Preparation of a kinase working solution: TRKA, TRKB and TRKC were diluted with 1.33× enzyme buffer to the required concentrations of 2× of 0.404 ng/μL, 0.304 ng/μL and 0.236 ng/μL, respectively;
Preparing a substrate working solution: a mixture of TK Substrate Blr diluted to the desired final concentration of 4× (from HTRF kit) and ATP (10 mM) with 1.33× enzyme buffer; the final ATP concentrations for TRKA, TRKB, and TRKC were: 3.727 μmol/L, 2.56 μmol/L and 2.526 μmol/L. The TK Substrate-biotin (from HTRF KinEASE TKkit) final concentrations were all: 0.2 μmol/L.
Preparing a detection working solution: 16.67 μmol/L of Streptavidin-XL665 (Streptavidin-XL 665) were diluted to the desired final concentration of 4× with HTRF test buffer and then mixed with an equal volume of Antibody-europium Cryptate (Antibody-Cryptate) (both from HTRF kits).
An enzyme reaction step: add 4 μL of kinase working solution to each well of a low volume 384 microwell plate along with 4 μL of 1.33× enzyme buffer as a Negative control (Negative); add 2 μl of compound working solution to the wells, while adding 2 μl of […] aqueous solution as a zero compound concentration control (i.e., Positive control, Positive); incubating at 25° C. for 5 min; add 2 μL of substrate working solution to the wells to start the enzymatic reaction, shake the reaction for 30 min at 37° C.
HTRF reagent detection step: adding […] to the hole to terminate the reaction; reacting for 1 h at 25° C.;
Reading of HTRF signal: the PHERAstar FS reading is adopted to detect signals, and the corresponding setting of the instrument is as follows:
For the raw data read out per well, the ratio=665 nm/620 nm;
Calculation of inhibition rate:
Calculation of IC50 values: with the logarithm of the compound concentration as abscissa and the inhibition as ordinate, a non-linear curve was fitted in GraphPad Prism 5: log (inhibitor) vs. response—Variable slope, and calculating the concentration of the compound to be detected, namely IC50, when the enzyme activity inhibition rate is 50%.

TRKC = target: T3, TRKC (Homo sapiens, UniProt Q16288); assay: In vitro biochemical HTRF KinEASE kinase inhibition, TRKC; details: wild-type kinase, final ATP 2.526 μmol/L
T3 construct: purchased Carna Biosciences 08-197
T3 sequence (Q16288 32-825 isoform Q16288-3 limits assumed): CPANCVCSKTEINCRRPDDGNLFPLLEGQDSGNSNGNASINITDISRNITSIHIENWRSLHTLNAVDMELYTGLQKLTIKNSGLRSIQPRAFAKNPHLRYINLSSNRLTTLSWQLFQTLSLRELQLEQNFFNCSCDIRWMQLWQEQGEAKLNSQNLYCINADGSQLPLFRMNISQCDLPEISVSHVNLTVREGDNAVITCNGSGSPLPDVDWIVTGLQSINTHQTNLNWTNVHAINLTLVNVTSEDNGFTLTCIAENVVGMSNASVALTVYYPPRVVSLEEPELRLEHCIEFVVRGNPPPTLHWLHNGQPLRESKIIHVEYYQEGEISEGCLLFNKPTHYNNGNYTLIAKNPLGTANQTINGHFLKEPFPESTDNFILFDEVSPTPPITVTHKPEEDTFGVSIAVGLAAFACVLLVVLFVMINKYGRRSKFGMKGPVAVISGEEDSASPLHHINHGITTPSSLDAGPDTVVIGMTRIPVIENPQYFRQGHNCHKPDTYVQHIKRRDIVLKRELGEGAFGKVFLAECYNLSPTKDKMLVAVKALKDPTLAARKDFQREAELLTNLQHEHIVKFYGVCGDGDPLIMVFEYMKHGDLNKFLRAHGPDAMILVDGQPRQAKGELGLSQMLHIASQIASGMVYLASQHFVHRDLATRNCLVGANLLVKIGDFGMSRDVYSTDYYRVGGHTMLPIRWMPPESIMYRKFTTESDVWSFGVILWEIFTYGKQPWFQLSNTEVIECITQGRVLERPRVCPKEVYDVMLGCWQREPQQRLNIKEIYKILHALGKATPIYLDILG

TRKA-G595R = target: T4, TRKA-G595R (Homo sapiens, UniProt P04629, G595R); assay: TRK kinase mutant inhibition (HTRF), TRKA-G595R; type: biochemical
T4 construct: purchased Carna Biosciences
T4 sequence (P04629 33-796 G595R): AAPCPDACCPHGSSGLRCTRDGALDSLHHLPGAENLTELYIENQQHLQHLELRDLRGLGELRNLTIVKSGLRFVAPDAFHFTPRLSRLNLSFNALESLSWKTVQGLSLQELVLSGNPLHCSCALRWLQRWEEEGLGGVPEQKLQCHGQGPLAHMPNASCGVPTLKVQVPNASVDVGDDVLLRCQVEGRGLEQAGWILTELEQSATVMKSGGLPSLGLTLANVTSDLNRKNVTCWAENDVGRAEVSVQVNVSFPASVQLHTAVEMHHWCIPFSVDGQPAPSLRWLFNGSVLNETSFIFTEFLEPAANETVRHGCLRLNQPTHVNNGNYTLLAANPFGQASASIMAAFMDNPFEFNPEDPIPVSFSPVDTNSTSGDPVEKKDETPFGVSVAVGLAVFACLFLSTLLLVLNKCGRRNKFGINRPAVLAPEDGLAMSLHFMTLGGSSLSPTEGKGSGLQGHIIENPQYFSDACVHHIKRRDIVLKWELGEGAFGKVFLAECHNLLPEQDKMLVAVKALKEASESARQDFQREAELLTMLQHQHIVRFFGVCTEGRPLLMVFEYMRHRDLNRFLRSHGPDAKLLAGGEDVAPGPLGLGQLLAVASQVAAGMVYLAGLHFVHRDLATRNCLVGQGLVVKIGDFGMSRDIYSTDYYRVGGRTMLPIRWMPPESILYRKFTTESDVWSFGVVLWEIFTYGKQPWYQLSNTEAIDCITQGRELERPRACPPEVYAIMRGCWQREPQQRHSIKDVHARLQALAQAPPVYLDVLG

TRKA-G667C = target: T5, TRKA-G667C (Homo sapiens, UniProt P04629, G667C); assay: TRK kinase mutant inhibition (HTRF), TRKA-G667C; type: biochemical
T5 construct: purchased Carna Biosciences
T5 sequence (P04629 33-796 G667C): as the sequence (P04629 33-796 G595R) above, with R563G, G635C counted along it

TRKA-F589L = target: T6, TRKA-F589L (Homo sapiens, UniProt P04629, F589L); assay: TRK kinase mutant inhibition (HTRF), TRKA-F589L; type: biochemical
T6 construct: purchased Carna Biosciences
T6 sequence (P04629 33-796 F589L): as the sequence (P04629 33-796 G595R) above, with F557L, R563G counted along it

TRKC-G623R = target: T7, TRKC-G623R (Homo sapiens, UniProt Q16288, G623R); assay: TRK kinase mutant inhibition (HTRF), TRKC-G623R; type: biochemical
T7 construct: purchased Carna Biosciences
T7 sequence (Q16288 32-839 G623R): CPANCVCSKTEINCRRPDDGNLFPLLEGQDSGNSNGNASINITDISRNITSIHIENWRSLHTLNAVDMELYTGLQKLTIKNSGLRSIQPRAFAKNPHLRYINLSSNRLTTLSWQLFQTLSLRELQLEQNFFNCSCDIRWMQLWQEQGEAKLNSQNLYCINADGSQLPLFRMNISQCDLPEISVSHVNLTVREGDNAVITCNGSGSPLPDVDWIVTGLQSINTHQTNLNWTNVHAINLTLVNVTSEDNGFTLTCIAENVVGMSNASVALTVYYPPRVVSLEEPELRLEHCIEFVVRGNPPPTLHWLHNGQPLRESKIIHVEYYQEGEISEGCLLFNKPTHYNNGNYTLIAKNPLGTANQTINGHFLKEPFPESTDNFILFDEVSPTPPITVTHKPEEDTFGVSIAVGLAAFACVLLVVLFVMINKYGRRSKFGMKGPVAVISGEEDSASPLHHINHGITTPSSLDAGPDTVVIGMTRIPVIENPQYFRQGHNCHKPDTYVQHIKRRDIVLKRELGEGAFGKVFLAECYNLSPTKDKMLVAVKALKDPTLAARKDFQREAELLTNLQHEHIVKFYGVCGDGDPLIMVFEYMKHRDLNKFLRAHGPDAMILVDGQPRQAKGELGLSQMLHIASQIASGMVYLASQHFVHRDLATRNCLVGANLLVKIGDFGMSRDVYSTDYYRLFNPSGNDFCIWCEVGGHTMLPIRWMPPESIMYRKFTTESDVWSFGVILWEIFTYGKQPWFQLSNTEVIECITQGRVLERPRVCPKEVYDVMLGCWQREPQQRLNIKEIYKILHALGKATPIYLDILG

TRKC-G696A = target: T8, TRKC-G696A (Homo sapiens, UniProt Q16288, G696A); assay: TRK kinase mutant inhibition (HTRF), TRKC-G696A; type: biochemical
T8 construct: purchased Carna Biosciences
T8 sequence (Q16288 32-839 G696A): as the sequence (Q16288 32-839 G623R) above, with R592G, G665A counted along it

Human NSCLC H2228 [1] = assay: Antitumor activity on nude mouse xenograft tumor model (Test Example 4); type: in vivo, nude mice (BALB/c)
Protocol: The efficacy of the compounds of the invention was evaluated by a standard murine model of the transplanted tumor. Human NSCLC H2228 was cultured, collected, and inoculated subcutaneously to 5-6 weeks old female nude mice (BALB/c, Shanghai Ling Chang Biotech, Ltd.). When the tumor volume reached 100-150 mm^3, the animals were randomly divided into a solvent control group ([…] in water) and a compound group (6 animals per group). Animals were subsequently gavaged with the compounds of the examples (corresponding dose, dissolved in […] in water), starting anywhere from 0 to 7 days after tumor cell inoculation, and were performed twice daily in the experiment.
The experimental index is to examine the influence of the compound of the embodiment on the growth of the tumor, and the specific index is […].
(§1) Tumor diameters were measured twice weekly with a vernier caliper and tumor volume (V) was calculated as:
(§2) V=½×a×b^2 wherein a and b represent length and width, respectively.
(§3) T/C(%)=(T−T0)/(C−C0)×100 where T, C is the tumor volume at the end of the experiment; T0, C0 are tumor volumes at the beginning of the experiment.
(§4) Partial tumor regression (PR) is defined if the tumor shrinks from the initial volume, i.e., T<T0 or C<C0; if the tumor completely disappears, it is defined as complete tumor regression (CR).
(§5) Comparison between the two groups of tumor volumes was tested using a two-tailed Student's t test, with P<0.05 defined as statistically significant differences.
BID below refers to twice daily dosing.

[2] = Drug metabolism study in rats, oral administration; details: rat
[3] = Drug metabolism study in rats, intravenous administration; details: rat
Human NSCLC H2228 [4] = assay: Antitumor activity on nude mouse xenograft tumor model (Test Example 5); type: in vivo, nude mice (BALB/c); details: for Partially regression: D14, tumors regressed/animals per group
Protocol: The efficacy of the compounds of the invention was assessed by a standard murine model of transplanted tumors. Human NSCLC H2228 was cultured, collected, and inoculated subcutaneously to 5-6 weeks old female nude mice (BALB/c, Shanghai Ling Chang Biotech, Ltd.). When the tumor volume reached 100-150 mm3, the animals were randomly divided into a solvent control group (70% PEG-400 in water) and a compound group (6 animals per group).
Animals were subsequently gavaged with the compounds of the examples (corresponding doses, dissolved in 70% PEG-400 in water), starting anywhere from 0 to 13 days after tumor cell inoculation, and were performed once or twice daily in the experiment.
The experimental index is to examine the influence of the compound of the embodiment on the growth of the tumor, and the specific index is T/C % or tumor inhibition rate TGI (%).
as §1, §2, §3
Tumor inhibition rate (TGI) (%) 100−T/C (%).
When tumor regression occurred, Tumor inhibition rate (TGI) (%) 100−(T−T0)/T0×100
as §4, §5
BID below indicates twice daily dosing and QD indicates once daily dosing.

[5] = 50 mg/kg BID D0-7, D14, tumors regressed/animals per group

T1 sequence (P04629 33-796): as the sequence (P04629 33-796 G595R) above, with R563G counted along it

## C[C@@H](Nc1ccn2ncc(-c3cnn(CCO)c3)c2n1)c1cc(F)ccc1OCC(F)F [Compound 5, (R)-2-(4-(5-((1-(2-(2,2-difluoroethoxy)-5-fluorophenyl)ethyl)amino)pyrazolo [1,5-a]pyrimidin-3-yl)-1H-pyrazol-1-yl) ethanol]
TRKA
  IC50: 3.6 nM
TRKB
  IC50: 3.9 nM
TRKC
  IC50: 11.1 nM
TRKA-G595R
  IC50: 0.88 nM
TRKA-G667C
  IC50: 0.95 nM
TRKA-F589L
  IC50: 0.29 nM
TRKC-G623R
  IC50: 0.61 nM
TRKC-G696A
  IC50: 1 nM
Human NSCLC H2228 [1]; [5]
  Partially regression: 2/6
  complete regression: 3/6
Human NSCLC H2228 [1]; 50 mg/kg BID gavage D0-7, dosing stopped from D8, read at D14, 50 mg/kg
  Tumor growth inhibition value D14: 155%
Human NSCLC H2228 [1]; 50 mg/kg BID gavage D0-7, dosing stopped from D8, read at D14, listed as compound 5, 50 mg/kg
  Tumor growth inhibition value D14: 155%
Human NSCLC H2228 [1]; 50 mg/kg BIDx8, D7, tumors regressed/animals per group
  tumor completely regressed D7: 4/6
Human NSCLC H2228 [1]; 50 mg/kg BIDx8, read at D7
  tumor inhibition rate D7: 182%
[2]; in vivo, po, 5 mg/kg
  bioavailability: 49.3%
[2]; oral 5 mg/kg
  CL: 158 mL/min/kg
  Cmax: 217.7 ng/mL
  T1/2: 5.7 h
  Tmax: 0.25 h
  Vz: 79.26 L/kg
[2]; plasma, po, 5 mg/kg
  AUC(0-t): 479 ng·h/mL
  MRT last: 3.6 h
[3]; in vivo, iv, 1 mg/kg
  Vd: 40 L/kg
  clearance: 83.3 mL/min/kg
[3]; intravenous injection 1 mg/kg
  Cmax: 104.1 ng/mL
  T1/2: 5.7 h
[3]; plasma, iv, 1 mg/kg
  AUC(0-t): 194 ng·h/mL
  MRT last: 3.89 h

## C[C@@H](Nc1ccn2ncc(-c3cn[nH]c3)c2n1)c1cc(F)ccc1OCC(F)(F)F [Compound b8-30, (R)-N-(1-(5-fluoro-2-(2,2,2-trifluoroethoxy)phenyl)ethyl)-3-(1H-pyrazol-4-yl) pyrazolo [1,5-a] pyrimidin-5-amine]
TRKA
  IC50: 2.8 nM
TRKB
  IC50: 3.2 nM
TRKC
  IC50: 3.9 nM
TRKA-G595R
  IC50: 0.75 nM
TRKA-G667C
  IC50: 0.76 nM
TRKA-F589L
  IC50: 0.44 nM
TRKC-G623R
  IC50: 0.73 nM
TRKC-G696A
  IC50: 1.3 nM
Human NSCLC H2228 [4]; 25 mg/kg BID D0-13 (50 mg/kg from D8)
  Partially regression: 6/6
Human NSCLC H2228 [4]; 25 mg/kg BID D0-13 (dose increased from D8 to 50 mg/kg), read at D14
  Tumor growth inhibition value/ D14: 127%
Human NSCLC H2228 [4]; 25 mg/kg BID D0-13 (dose increased from D8 to 50 mg/kg), read at D14, listed as compound b8-30
  Tumor growth inhibition value/ D14: 127%
Human NSCLC H2228 [4]; 25 mg/kg BID, read at D7
  tumor inhibition rate D7: 95%
Human NSCLC H2228 [4]; 50 mg/kg QD D0-10 (100 mg/kg from D8)
  Partially regression: 3/6
Human NSCLC H2228 [4]; 50 mg/kg QD D0-10 (dose raised from D8 to 100 mg/kg), read at D14
  Tumor growth inhibition value/ D14: 110%
Human NSCLC H2228 [4]; 50 mg/kg QD D0-10 (dose raised from D8 to 100 mg/kg), read at D14, listed as compound b8-30
  Tumor growth inhibition value/ D14: 110%
Human NSCLC H2228 [4]; 50 mg/kg QD, read at D7
  tumor suppression D7: 96%
[2]; oral 5 mg/kg
  CL: 57.7 mL/min/kg
  Vz: 19.23 L/kg
[2]; plasma, po, 5 mg/kg
  AUC(0-t): 1460 ng·h/mL
  Cmax: 283 ng/mL
  MRT last: 4.27 h
  Tmax: 2 h
  bioavailability: 56.2%
  half-life: 4 h
[3]; plasma, iv, 1 mg/kg
  AUC(0-t): 518 ng·h/mL
  Cmax: 174 ng/mL
  MRT last: 4.2 h
  Vd: 12.7 L/kg
  clearance: 30.3 mL/min/kg
  half-life: 4.95 h
